Laboratory results taken from PubChem BioAssay AID624144 (National Center for Advancing Translational Sciences (NCATS), 2012).

System: human plasma stability, LC-MS/MS, 48 h
Assay: qHTS Assay to Find Inhibitors of T. brucei phosphofructokinase: Human Plasma Stability Profiling
Details: at 2 µM; hits give low values

SMILES: O=C(Cc1ccc(Cl)c(Cl)c1)Nc1ccc(S(=O)(=O)Nc2ccon2)cc1
- percent remaining in plasma (higher = more stable): 100%
